In patent publication US9695160B2, “Piperazine derivatives for treating disorders” (THE UNIVERSITY OF NOTTINGHAM, priority 2014, dated 2017):
Entries after “also recorded” stand apart in the source; their conditions may differ. Where two headings read alike, the source gives them in different places.

How the values were obtained:
SRPK1 [1] = target: T1, SRPK1 (Homo sapiens (Human), UniProt Q96SB4); experiment: In vitro kinase assay (Kinase-Glo), SRPK1 inhibition; type: biochemical; details: Table 2, SRPK1 inhibition assay
T1 sequence (Q96SB4 whole entry): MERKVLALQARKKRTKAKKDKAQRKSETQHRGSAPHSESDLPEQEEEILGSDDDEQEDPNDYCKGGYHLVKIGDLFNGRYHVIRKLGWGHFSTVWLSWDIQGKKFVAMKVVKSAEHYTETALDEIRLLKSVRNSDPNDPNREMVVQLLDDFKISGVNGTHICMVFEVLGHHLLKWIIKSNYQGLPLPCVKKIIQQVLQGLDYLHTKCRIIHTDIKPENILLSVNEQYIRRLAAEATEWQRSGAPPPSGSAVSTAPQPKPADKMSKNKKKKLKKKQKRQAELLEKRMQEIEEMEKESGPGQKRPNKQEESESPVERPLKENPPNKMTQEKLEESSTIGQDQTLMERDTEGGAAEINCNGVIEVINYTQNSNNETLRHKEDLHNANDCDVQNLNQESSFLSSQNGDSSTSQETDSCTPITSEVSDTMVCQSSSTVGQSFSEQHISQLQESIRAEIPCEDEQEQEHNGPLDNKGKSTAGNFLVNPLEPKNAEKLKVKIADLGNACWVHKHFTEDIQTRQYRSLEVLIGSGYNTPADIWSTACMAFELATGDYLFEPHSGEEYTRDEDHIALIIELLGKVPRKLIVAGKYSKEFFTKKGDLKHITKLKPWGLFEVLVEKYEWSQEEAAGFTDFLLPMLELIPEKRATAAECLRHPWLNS
Experimental: Candidate compounds were serially diluted from 10 μM-0.5 nM and added to the reaction mixture, wells with omitted SRPK1 kinase and omitted compounds were also added as controls. All wells contained one percent DMSO. One micromolar ATP was added, wells minus ATP were used as background controls. The plate was then incubated at 30° C. for 10 minutes. An equal volume of Kinase-Glo (Promega, 25 μl) was added to each well and the plate read for luminescence using an Fluostar Optima (BMG Labtech).

in vitro = details: human
Excerpt: We also tested the half life of these compounds when exposed to human liver microsomes.

[2] = Solubility in water of salt forms; details: salt forms versus free compounds
[3] = Scleral permeability, modified Ussing chamber, rabbit eye tissue; details: rabbit sclera; for detection in the vitreous: 24 hours
Experimental: (§1) Scleral permeability was measured using a modified Ussing chamber assembly in isotonic assay buffer (pH 7.4). Rabbit or porcine excised eye tissues were mounted in the chambers such that the episcleral side faced the donor chamber and the retinal side faced the receiver chamber. The chambers were filled with equal volumes of assay buffer, with (donor side) or without (receiver side) 1 μg/ml compound. After 4 or 24 hours tissue was removed from the chamber and the receiver side (“vitreous”) sampled. Tissue was dissected into sclera, choroid/RPE, and retina and homogenised.
(§2) After 0, 4 or 24 hours, the fluid from the bottom chamber (vitreous) and the retinal tissue was isolated and compounds purified by acetonitrile extraction and HPLC.

[4] = Scleral permeability, modified Ussing chamber, porcine eye tissue; type: in vitro ADME; details: porcine eyes
Experimental: as §1, §2

[5] = target: human ether a go-go related gene (hERG) K+ channel (Homo sapiens (Human), UniProt Q12809); details: previously described (Gammons et al., 2013); cited from earlier work
human ether a go-go related gene (hERG) K+ channel, sequence (Q12809 whole entry): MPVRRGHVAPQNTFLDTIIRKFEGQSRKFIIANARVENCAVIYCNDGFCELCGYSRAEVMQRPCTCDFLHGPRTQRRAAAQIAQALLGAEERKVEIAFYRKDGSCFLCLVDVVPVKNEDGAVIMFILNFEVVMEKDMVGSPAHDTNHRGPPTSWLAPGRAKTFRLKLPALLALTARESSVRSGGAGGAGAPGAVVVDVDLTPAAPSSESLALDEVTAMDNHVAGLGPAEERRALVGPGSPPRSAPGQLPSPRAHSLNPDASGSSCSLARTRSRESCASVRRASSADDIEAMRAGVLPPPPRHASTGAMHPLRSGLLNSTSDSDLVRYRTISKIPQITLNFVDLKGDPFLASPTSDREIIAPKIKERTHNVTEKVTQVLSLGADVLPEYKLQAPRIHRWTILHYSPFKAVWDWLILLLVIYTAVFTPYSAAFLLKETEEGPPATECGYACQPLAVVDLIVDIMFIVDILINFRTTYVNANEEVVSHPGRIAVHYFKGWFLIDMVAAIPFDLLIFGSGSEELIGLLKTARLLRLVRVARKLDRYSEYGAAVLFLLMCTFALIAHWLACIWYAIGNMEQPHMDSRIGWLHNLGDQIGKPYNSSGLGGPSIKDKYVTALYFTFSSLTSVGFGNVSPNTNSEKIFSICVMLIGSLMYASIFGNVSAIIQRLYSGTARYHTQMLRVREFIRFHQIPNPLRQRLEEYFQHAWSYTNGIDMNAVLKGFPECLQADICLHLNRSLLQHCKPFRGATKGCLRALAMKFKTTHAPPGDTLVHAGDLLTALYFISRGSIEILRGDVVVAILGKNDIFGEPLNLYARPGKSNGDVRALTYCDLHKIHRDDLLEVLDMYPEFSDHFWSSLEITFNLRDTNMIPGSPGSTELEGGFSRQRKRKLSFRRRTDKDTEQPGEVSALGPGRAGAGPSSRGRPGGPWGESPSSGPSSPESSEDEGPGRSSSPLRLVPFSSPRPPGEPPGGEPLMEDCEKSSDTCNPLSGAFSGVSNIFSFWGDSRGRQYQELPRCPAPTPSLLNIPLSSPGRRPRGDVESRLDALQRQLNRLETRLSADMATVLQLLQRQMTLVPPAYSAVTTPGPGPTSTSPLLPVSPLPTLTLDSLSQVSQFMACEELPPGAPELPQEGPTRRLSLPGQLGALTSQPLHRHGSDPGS

SRPK1 [6] = target: T1, SRPK1; details: read-out: IC50 of SRPK1 inhibition; previously shown; cited from earlier work
[7] = tested on: choroidal neovascularisation; details: mouse models of CNV, previously shown; cited from earlier work
[8] = type: cell-based
Excerpt: To test whether compounds of Formula (I) are safe to administer to patients we began a basic safety test of these compounds in vitro.

VEGF165b [9] = details: cited from earlier work
VEGF165b [10] = experiment: VEGF165b expression in RPE cells; type: cell-based
SRSF1 localisation [11] = experiment: SRSF1 nuclear localisation by immunofluorescence in MDA-MB231 cells; type: cell-based
SRSF1 localisation [12] = experiment: SRSF1 nuclear localisation by immunofluorescence in PC3 cells; type: cell-based
[13] = monthly 0.5 mg, at one year; cited from earlier work

O=C(Nc1cc(C(F)(F)F)ccc1N1CCN(Cc2ccccc2)CC1)c1ccc(-c2cccnc2)o1 [Compound 21]
IC50 (SRPK1 [1]): 4.6 nM
half-life (in vitro; liver microsomes): 1.04 h

O=C(Nc1cc(C(F)(F)F)ccc1N1CCN(Cc2ccccn2)CC1)c1nc(-c2ccccc2)no1 [Compound 34]
IC50 (SRPK1 [1]): 5310 nM

CN1CCN(c2ccc(C(F)(F)F)cc2NC(=O)c2cccs2)CC1 [Compound 40]
IC50 (SRPK1 [1]): 4690 nM

CSc1nccc(CN2CCN(c3ccc(C(F)(F)F)cc3NC(=O)c3ccc(C)o3)CC2)n1 [Compound 31]
IC50 (SRPK1 [1]): 1.9 nM

Cc1nnc(C(=O)Nc2cc(C(F)(F)F)ccc2N2CCN(Cc3ccccn3)CC2)o1 [Compound 28]
IC50 (SRPK1 [1]): 10000 nM

O=C(Nc1cc(C(F)(F)F)ccc1N1CCN(Cc2ccncc2)CC1)c1ccc(-c2ccncc2)o1 [Compound 14]
solubility in water [2]: more freely soluble in water

Cc1ccc(C(=O)Nc2cc(C(F)(F)F)ccc2N2CCN(Cc3ccccc3)CC2)o1 [Compound 20]
IC50 (SRPK1 [1]): 4.4 nM
half-life (in vitro; liver microsomes): 0.283 h

O=C(Nc1cc(C(F)(F)F)ccc1N1CCN(Cc2cnccn2)CC1)c1ccco1 [Compound 43]
IC50 (SRPK1 [1]): 183 nM

O=C(Nc1cc(C(F)(F)F)ccc1N1CCN(Cc2ccccc2)CC1)c1ccco1 [Compound 19]
IC50 (SRPK1 [1]): 14.1 nM

Cc1cnc(C(=O)Nc2cc(C(F)(F)F)ccc2N2CCN(Cc3ccccn3)CC2)o1 [Compound 27]
IC50 (SRPK1 [1]): 10000 nM

Cc1ccc(Nc2nccc(N(C)c3ccc4c(C)n(C)nc4c3)n2)cc1S(N)(=O)=O [pazopanib]
detection in retina and vitreous ([3]; 4 hrs): could not
detection in the vitreous [3]: detected
accumulation in sclera and RPE/Choroid layer [4]: accumulated in the sclera and in the RPE/Choroid layer
penetration into retina and vitreous [4]: did not penetrate the retina

O=C(Nc1cc(C(F)(F)F)ccc1N1CCCCC1)c1ccncc1 [SRPIN340]
hERG inhibition [5]: do not inhibit hERG
IC50 (SRPK1 [6]): 1000 nM
eye drop concentration of maximum anti-angiogenic effect [7]: 10 µg/mL

CN1CCN(c2ccc(C(F)(F)F)cc2NC(=O)c2nc(-c3ccccc3)c[nH]2)CC1 [Compound 41]
IC50 (SRPK1 [1]): 493 nM

Cc1ccc(C(=O)Nc2cc(C(F)(F)F)ccc2N2CCOCC2)o1 [SPHINX]
hERG inhibition [5]: did not inhibit hERG; also recorded: do not inhibit hERG
eye drop concentration of maximum anti-angiogenic effect [7]: 10 µg/mL

CN(C)CCN1CCN(c2ccc(C(F)(F)F)cc2NC(=O)c2ccc(-c3ccncc3)o2)CC1 [SPHINX7]
doses at which toxic [8]: greater than 10 μM

bevicizumab: an anti-VEGF antibody from which Lucentis was derived
binding of VEGF165b versus VEGF165 (VEGF165b [9]): equal potency

O=C(Nc1cc(C(F)(F)F)ccc1N1CCN(Cc2cccnc2)CC1)c1ccc(-c2ccncc2)o1 [Compound 13]
solubility in water [2]: more freely soluble in water

O=C(Nc1cc(C(F)(F)F)ccc1N1CCN(Cc2ccccn2)CC1)c1ccc(-c2ccncc2)o1 [Compound 12]
expression of anti-angiogenic VEGF165b (VEGF165b [10]): dose dependent increase in VEGF165b
solubility in water [2]: more freely soluble in water
SRSF1 cellular localisation (SRSF1 localisation [11]): inhibited cellular localisation
half-life (in vitro; microsomes): 1.02 h
detection in the vitreous [3]: more SPHINX31 than pazopanib
SRSF1 cellular localisation (SRSF1 localisation [12]): inhibited cellular localisation

B1: Lucentis: a novel humanized anti-VEGF antibody fragment (antibody, chains of the INN, looked up, V domains shown)
VH: EVQLVESGGGLVQPGGSLRLSCAASGYDFTHYGMNWVRQAPGKGLEWVGWINTYTGEPTYAADFKRRFTFSLDTSKSTAYLQMNSLRAEDTAVYYCAKYPYYYGTSHWYFDVWGQGTLVTVSS
VL: DIQLTQSPSSLSASVGDRVTITCSASQDISNYLNWYQQKPGKAPKVLIYFTSSLHSGVPSRFSGSGSGTDFTLTISSLQPEDFATYYCQQYSTVPWTFGQGTKVEIK
modifications: Fab
notes: a novel humanized anti-VEGF antibody fragment
patients who maintained visual acuity (loss of <15 letters) [13]: approximately 95%
patients with improved vision (gain of ≧15 letters) [13]: ≤ 40%
